Laboratory results published in patent US12336981B2, “Compounds and compositions for the inhibition of NAMPT” (Valo Health, Inc., priority 2010, dated 2025).

Legend:
NAMPT = biological target: T1, NAMPT (Homo sapiens, UniProt P43490); experiment: Biochemical inhibition assay: NAMPT enzymatic reaction, NMN quantified by mass spectrometry; conditions: NAMPT enzymatic reaction; read-out: Biochem IC50
T1 construct: His tag; host or cells: E. coli
How it was run: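 Inhibition of E. coli-expressed His-tagged human NAMPT, measured as NMN formation by mass spectrometry after a 30 min room-temperature reaction containing 1 μM NAM, 100 μM PRPP and 2.5 mM ATP.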

A2780 cells = experiment: In-vitro cell proliferation assay (SRB), A2780 cells; format: cell-based; conditions: Homo sapiens, A2780, 72 h, A2780 cells, 72 hours, SRB; read-out: A2780 IC50
How it was run: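 Viable cells measured by SRB staining after 6% TCA fixation, absorbance 570 nm. Media-only background subtracted; % inhibition derived at two compound concentrations.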

T1 sequence (P43490 whole entry): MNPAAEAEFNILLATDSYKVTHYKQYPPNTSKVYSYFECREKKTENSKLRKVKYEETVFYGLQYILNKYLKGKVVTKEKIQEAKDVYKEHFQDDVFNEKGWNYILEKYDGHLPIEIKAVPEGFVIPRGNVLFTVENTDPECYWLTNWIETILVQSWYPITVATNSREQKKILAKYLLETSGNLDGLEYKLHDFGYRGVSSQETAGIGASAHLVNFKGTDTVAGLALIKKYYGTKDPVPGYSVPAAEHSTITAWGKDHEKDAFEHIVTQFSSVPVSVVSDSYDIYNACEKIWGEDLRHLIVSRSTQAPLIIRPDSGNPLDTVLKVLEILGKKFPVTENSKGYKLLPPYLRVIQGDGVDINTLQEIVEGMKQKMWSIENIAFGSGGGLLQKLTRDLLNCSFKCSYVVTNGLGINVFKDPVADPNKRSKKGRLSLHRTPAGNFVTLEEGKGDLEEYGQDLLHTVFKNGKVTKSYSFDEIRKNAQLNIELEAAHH

SMILES	IC50 (NAMPT) [nM]	IC50 (A2780 cells) [nM]
O=C(NCc1ccc(S(=O)(=O)c2cccc(N3CCCCC3)c2)cc1)c1cc2cc(O)ccc2[nH]1	100 to 1000	1000 to 10000
O=C(NCc1ccc(S(=O)(=O)c2cccc(N3CCCC3)c2)cc1)c1cc2cc(O)ccc2[nH]1	144	100 to 1000
Cc1ccc(Cl)c(S(=O)(=O)c2ccc(CNC(=O)c3cc4ccncc4s3)cc2)c1	2.2	4.9
CC(=O)c1ccccc1S(=O)(=O)c1ccc(CNC(=O)c2cnc3nccn3c2)cc1	2.5	8.2
CCCCOc1cc(F)ccc1S(=O)(=O)c1ccc(CNC(=O)c2cc3cnccc3[nH]2)cc1	31.1	5.5
CCCCOc1cc(F)ccc1S(=O)(=O)c1ccc(CNC(=O)c2cc3ccncc3s2)cc1	7	6.3
CCCCOc1cc(F)ccc1S(=O)(=O)c1ccc(CNC(=O)c2ccc3nccn3c2)cc1	51.2	6.2
CCCCOc1cc(F)ccc1S(=O)(=O)c1ccc(CNC(=O)c2cnc3nccn3c2)cc1	7.3	73.8
CCCCOc1cc(F)ccc1S(=O)(=O)c1ccc(CNC(=O)c2cc3ccncc3o2)cc1	33.5	66.5
CCCCOc1ccc(Cl)cc1S(=O)(=O)c1ccc(CNC(=O)c2cc3ccncc3o2)cc1	24.3	66.3
CCCCOc1ccc(Cl)cc1S(=O)(=O)c1ccc(CNC(=O)c2cc3ccncc3s2)cc1	7.3	10
CCCCOc1ccc(Cl)cc1S(=O)(=O)c1ccc(CNC(=O)c2ccc3nccn3c2)cc1	11	8
CCCCOc1ccc(Cl)cc1S(=O)(=O)c1ccc(CNC(=O)c2cc3cnccc3[nH]2)cc1	15.6	8.3
CCCCOc1ccc(Cl)cc1S(=O)(=O)c1ccc(CNC(=O)c2cnc3nccn3c2)cc1	3.7	62.8
CCCCOc1cccc(F)c1S(=O)(=O)c1ccc(CNC(=O)c2cc3cnccc3[nH]2)cc1	8.8	5.6
CCCCOc1cccc(F)c1S(=O)(=O)c1ccc(CNC(=O)c2cc3ccncc3o2)cc1	25.6	69.8
O=C(NCc1ccc(S(=O)(=O)c2cccc(F)c2Cl)cc1)c1cc2ccncc2o1	17	61.1
O=C(NCc1ccc(S(=O)(=O)c2cccc(F)c2Cl)cc1)c1cnc2[nH]ncc2c1	73.6	100 to 1000
O=C(NCc1ccc(S(=O)(=O)c2ccc(F)cc2Cl)cc1)c1cc2ccncc2o1	17.8	63.4
O=C(NCc1ccc(S(=O)(=O)c2ccc(F)cc2Cl)cc1)c1cnc2nccn2c1	14.4	100 to 1000
COc1ccc(S(=O)(=O)c2ccc(CNC(=O)c3cnc4nccn4c3)cc2)c(Cl)c1	6.5	66.9
COc1ccc(S(=O)(=O)c2ccc(CNC(=O)c3cc4cnccc4[nH]3)cc2)c(Cl)c1	9.3	14.5
COc1ccc(S(=O)(=O)c2ccc(CNC(=O)c3cc4ccncc4s3)cc2)c(Cl)c1	2.7	5.5
COc1ccc(S(=O)(=O)c2ccc(CNC(=O)c3ccc4nccn4c3)cc2)c(Cl)c1	16.7	11.4
Cc1ccc(S(=O)(=O)c2ccc(CNC(=O)c3cc4ccncc4o3)cc2)c(Cl)c1	14.1	14.2

SMILES	IC50 (NAMPT) [nM]	IC50 (A2780 cells) [nM]
Cc1ccc(S(=O)(=O)c2ccc(CNC(=O)c3cnc4nccn4c3)cc2)c(Cl)c1	1.5	0.7
Cc1ccc(S(=O)(=O)c2ccc(CNC(=O)c3ccc4nccn4c3)cc2)c(Cl)c1	1.1	0.9
Cc1ccc(S(=O)(=O)c2ccc(CNC(=O)c3cc4cnccc4[nH]3)cc2)c(Cl)c1	8	2.7
Cc1ccc(S(=O)(=O)c2ccc(CNC(=O)c3cc4ccncc4s3)cc2)c(Cl)c1	24.9	1.6
O=C(NCc1ccc(S(=O)(=O)c2cc(F)ccc2Cl)cc1)c1cc2ccncc2s1	4.2	5.7
O=C(NCc1ccc(S(=O)(=O)c2cc(F)ccc2Cl)cc1)c1cc2ccncc2o1	16.3	24.8
O=C(NCc1ccc(S(=O)(=O)c2cc(F)ccc2Cl)cc1)c1cc2cnccc2[nH]1	28.1	12.1
O=C(NCc1ccc(S(=O)(=O)c2cc(F)ccc2Cl)cc1)c1ccc2nccn2c1	21	6.3
O=C(NCc1ccc(S(=O)(=O)c2cc(F)ccc2Cl)cc1)c1cnc2nccn2c1	10.5	53
COc1ccc(Cl)c(S(=O)(=O)c2ccc(CNC(=O)c3cc4cnccc4[nH]3)cc2)c1	11	9.7
COc1ccc(Cl)c(S(=O)(=O)c2ccc(CNC(=O)c3cc4ccncc4o3)cc2)c1	2.6	20.6
COc1ccc(Cl)c(S(=O)(=O)c2ccc(CNC(=O)c3cc4ccncc4s3)cc2)c1	4.9	5.3
COc1ccc(Cl)c(S(=O)(=O)c2ccc(CNC(=O)c3ccc4nccn4c3)cc2)c1	5.6	2.7
COc1ccc(Cl)c(S(=O)(=O)c2ccc(CNC(=O)c3cnc4nccn4c3)cc2)c1	6.1	51.5
Cc1ccc(Cl)c(S(=O)(=O)c2ccc(CNC(=O)c3cc4ccncc4o3)cc2)c1	17.8	14.9
Cc1ccc(Cl)c(S(=O)(=O)c2ccc(CNC(=O)c3ccc4nccn4c3)cc2)c1	5.6	4.6
Cc1ccc(Cl)c(S(=O)(=O)c2ccc(CNC(=O)c3cnc4[nH]ncc4c3)cc2)c1	60.2	65.9
Cc1ccc(Cl)c(S(=O)(=O)c2ccc(CNC(=O)c3cc4cnccc4[nH]3)cc2)c1	18.8	9.1
Cc1ccc(Cl)c(S(=O)(=O)c2ccc(CNC(=O)c3cnc4nccn4c3)cc2)c1	5.7	22.5
Cc1ccc(Cl)c(S(=O)(=O)c2ccc(CNC(=O)c3cnc4nccn4c3)cc2)c1Cl	7.3	56
Cc1ccc(Cl)c(S(=O)(=O)c2ccc(CNC(=O)c3cc4ccncc4o3)cc2)c1Cl	10.8	16.2
O=C(NCc1ccc(S(=O)(=O)c2c(Cl)cccc2Cl)cc1)c1cnc2nccn2c1	13.4	100 to 1000
O=C(NCc1ccc(S(=O)(=O)c2c(Cl)cccc2Cl)cc1)c1cc2ccncc2s1	7.6	18.2
O=C(NCc1ccc(S(=O)(=O)c2c(Cl)cccc2Cl)cc1)c1ccc2nccn2c1	1.2	18.8
O=C(NCc1ccc(S(=O)(=O)c2c(Cl)cccc2Cl)cc1)c1cc2cnccc2[nH]1	44.7	13.5

SMILES	IC50 (NAMPT) [nM]	IC50 (A2780 cells) [nM]
O=C(NCc1ccc(S(=O)(=O)c2c(Cl)cccc2Cl)cc1)c1cnc2[nH]ncc2c1	180	1000 to 10000
O=C(NCc1ccc(S(=O)(=O)c2c(Cl)cccc2Cl)cc1)c1cc2ccncc2o1	12.4	60.1
COc1cc(C)cc(OC)c1S(=O)(=O)c1ccc(CNC(=O)c2cnc3[nH]ncc3c2)cc1	100 to 1000	100 to 1000
Cc1cccc(C)c1S(=O)(=O)c1ccc(CNC(=O)c2cc3ccncc3o2)cc1	32.3	100 to 1000
COc1ccc(C(C)=O)cc1S(=O)(=O)c1ccc(CNC(=O)c2cnc3[nH]ncc3c2)cc1	27.7	27.5
COc1ccc(C(C)=O)cc1S(=O)(=O)c1ccc(CNC(=O)c2cc3ccncc3o2)cc1	7.2	3.8
COc1ccc(C(C)=O)cc1S(=O)(=O)c1ccc(CNC(=O)c2cnc3nccn3c2)cc1	17.2	54.8
CCOc1ccc(Cl)cc1S(=O)(=O)c1ccc(CNC(=O)c2cnc3nccn3c2)cc1	1.9	3.3
CCOc1ccc(Cl)cc1S(=O)(=O)c1ccc(CNC(=O)c2ccc3nccn3c2)cc1	2.2	0.5
CCOc1ccc(Cl)cc1S(=O)(=O)c1ccc(CNC(=O)c2cc3ccncc3s2)cc1	2.7	0.5
COc1ccc(Cl)cc1S(=O)(=O)c1ccc(CNC(=O)c2cnc3nccn3c2)cc1	5.5	6.1
COc1ccc(Cl)cc1S(=O)(=O)c1ccc(CNC(=O)c2cnc3[nH]ncc3c2)cc1	49.2	8.1
Cc1ccc(Cl)cc1S(=O)(=O)c1ccc(CNC(=O)c2cnc3nccn3c2)cc1	3.1	4.3
Cc1ccc(Cl)cc1S(=O)(=O)c1ccc(CNC(=O)c2cc3ccncc3s2)cc1	4.8	6.6
Cc1ccc(Cl)cc1S(=O)(=O)c1ccc(CNC(=O)c2cc3ccncc3o2)cc1	5.8	7.8
CCCOc1ccc(Cl)cc1S(=O)(=O)c1ccc(CNC(=O)c2cc3cnccc3[nH]2)cc1	7.5	1.2
CCCOc1ccc(Cl)cc1S(=O)(=O)c1ccc(CNC(=O)c2cc3ccncc3o2)cc1	8	9.3
CCCOc1ccc(Cl)cc1S(=O)(=O)c1ccc(CNC(=O)c2cc3ccncc3s2)cc1	5.7	1.2
COc1ccc(C#N)cc1S(=O)(=O)c1ccc(CNC(=O)c2ccc3nccn3c2)cc1	14.6	11.9
COc1ccc(F)cc1S(=O)(=O)c1ccc(CNC(=O)c2cc3ccncc3s2)cc1	2	0.8
COc1ccc(F)cc1S(=O)(=O)c1ccc(CNC(=O)c2cc3ccncc3o2)cc1	2.2	12.4
COc1ccc(F)cc1S(=O)(=O)c1ccc(CNC(=O)c2cnc3[nH]ncc3c2)cc1	39	15.1
COc1ccc(F)cc1S(=O)(=O)c1ccc(CNC(=O)c2cnc3nccn3c2)cc1	7.3	26.1
Cc1ccc(F)cc1S(=O)(=O)c1ccc(CNC(=O)c2cc3ccncc3o2)cc1	14.3	24.9
